Source: patent publication US8026370B2, “Carboxylic acid derivative containing thiazole ring and pharmaceutical use thereof” (Mitsubishi Tanabe Pharma Corporation, priority 2004, dated 2011)
Where two headings read alike, the source gives them in different places.

Key:
normal rats = test: Blood triglyceride (TG)-lowering action in normal rats; format: in vivo; conditions: 0.3 mg/kg p.o. once a day for 4 days, normal male SD rats, non-fasting, blood TG vs vehicle group; for inhibition in vivo at 0.3 mg/kg: Rattus norvegicus, po, 96 h, read-out: hypotriglyceridemic rate (%, 0.3 mg/kg, p.o.)
Method: 1) Blood Triglyceride (TG)-Lowering Action in Normal Rats
7 to 9-week-old male SD rats (manufactured by SEAC Yoshitomi, Ltd.) were used for the test. A test compound and a control compound (GW-9578: J. Med. Chem. 1999, 42, 3785-3788) were dissolved or suspended in 1% ethanol, 0.05% Tween80 (final concentration), and 0.5% hydroxypropylmethyl cellulose (HPMC) was added to adjust to a given concentration. The prepared solution was orally administered once a day for 4 days. After administration for 4 days, blood samples were collected from the jugular vein under non-fasting condition and blood TG was measured by an enzyme method. The lowering rate was calculated by determining the rate of a value obtained by subtracting the average blood TG of a drug administration group from the average blood TG of a vehicle administration group, to the average blood TG of the vehicle administration group.

[1] = tested on: high cholesterol diet-treated rat; test: Influence on serum lipid of high cholesterol diet-treated rat; format: in vivo, male SD rats; conditions: 0.3 mg/kg p.o. once a day for 5 days, high cholesterol diet rats, non-fasting; for inhibition in vivo at 0.3 mg/kg: Rattus norvegicus, po, 120 h
Method: 2) Influence on Serum Lipid of High Cholesterol Diet-Treated Rat
8-week-old male SD rats (manufactured by SEAC Yoshitomi, Ltd.) were raised on a standard diet CE-2 (manufactured by Japan Clea, Inc.) added with 1% cholesterol, 2% olive oil and 0.2% cholic acid, from one week before test compound administration to the last day of the administration. A test compound and a control compound (GW-9578) were dissolved or suspended in 1% ethanol, 0.05% Tween80 (final concentration), and 0.5% hydroxypropylmethyl cellulose (HPMC) was added to adjust to a given concentration. The prepared solution was orally administered once a day for 5 days. After administration for 5 days, blood samples were collected from the jugular vein under non-fasting condition and blood lipid was measured by an enzyme method. The lowering rate was calculated by determining the rate of a value obtained by subtracting the average blood TG (or average blood TC) of a drug administration group from the average blood triglyceride (TG) (or average blood total cholesterol (TC)) of a vehicle administration group, to the average blood TG (or average blood TC) of the vehicle administration group.

[2] = biological target: T1, Human Peroxisome Proliferator-Activated Receptor (PPAR)α (Homo sapiens, UniProt Q07869); test: Transcription activation test for human PPARα (GAL4-hPPARαLBD luciferase reporter in CV-1 cells); format: cell-based; conditions: firefly luciferase reporter, 24 hr with test compound in serum free medium, read-out: transactivation action (EC50, nmol/l)
T1 construct: expressed in transfected cells; host or cells: CV-1 cells (CCL-70)
T1 sequence (Q07869 239-466 limits assumed): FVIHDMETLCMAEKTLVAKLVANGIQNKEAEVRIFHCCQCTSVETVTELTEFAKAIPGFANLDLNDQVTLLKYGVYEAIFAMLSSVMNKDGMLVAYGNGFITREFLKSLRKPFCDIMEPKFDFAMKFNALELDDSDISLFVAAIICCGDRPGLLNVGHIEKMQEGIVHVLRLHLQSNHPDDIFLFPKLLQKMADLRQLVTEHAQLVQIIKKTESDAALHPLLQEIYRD
Excerpt: Transcription Activation Test for Human Peroxisome Proliferator-Activated Receptor (PPAR)α
CV-1 cells (CCL-70, manufactured by Dainippon Pharma Co., Ltd.) cultured in Dulbecco's Modified Eagle Medium (DMEM) containing 10% fetal bovine serum (FBS) were transfected, using Lipofectamine 2000 (manufactured by Invitrogen), with pBIND vector (manufactured by Promega) a fusion that expresses protein (GAL4-hPPARαLBD, manufactured based on Diabetes 47: 1841-1847, 1998) of a DNA binding region of a yeast transcription factor (GAL4) and a human PPARα ligand binding region, and an internal standard renilla luciferase, and GAL4 responsive TK vector (manufactured by Promega) that expresses reporter firefly luciferase. 24 hr later, the medium was changed to a serum free medium containing a test compound, and the luciferase activity after 24 hr was measured.

[3] = blood total cholesterol vs vehicle group, read-out: lowering rate (%, 0.3 mg/kg, p.o.) TC
[4] = blood triglyceride vs vehicle group, read-out: lowering rate (%, 0.3 mg/kg, p.o.) TG

EC50 [2] | SMILES | inhibition in vivo at 0.3 mg/kg (normal rats) | inhibition in vivo at 0.3 mg/kg [1, 3] | inhibition in vivo at 0.3 mg/kg [1, 4] | hypotriglyceridemic rate (%, 0.3 mg/kg, p.o.) (normal rats) | lowering rate (%, 0.3 mg/kg, p.o.) TC ([1]; blood total cholesterol vs vehicle group) | lowering rate (%, 0.3 mg/kg, p.o.) TG ([1]; blood triglyceride vs vehicle group)
10.4 nmol/L | CC(C)(Sc1nc(CCOc2ccc(-c3ccc(F)cc3)cc2)cs1)C(=O)O [Example 34, 2-[(4-{2-[(4′-fluorobiphenyl-4-yl)oxy]ethyl}-1,3-thiazol-2-yl)thio]-2-methylpropionic acid] | 62% | 43% | 45% |  |  | 
11.2 nmol/L | CC(C)(Sc1nc(CCOc2ccc(-c3ccc(F)cc3)cn2)cs1)C(=O)O [Example 100] | 61% | 35% | 38% |  |  | 
21 nmol/L | CC(C)(Sc1nc(CCNc2ncc(-c3ccc(OC(F)(F)F)cc3)cn2)cs1)C(=O)O [Example 162, 2-methyl-2-({4-[2-({5-[4-(trifluoromethoxy)phenyl]pyrimidin-2-yl}amino)ethyl]-1,3-thiazol-2-yl}thio)propionic acid] | 65% | 31% | 48% |  |  | 
29.7 nmol/L | CC(C)(Sc1nc(CCNc2ccc(-c3ccc(C(F)(F)F)cc3F)nn2)cs1)C(=O)O [Example 224, 2-({4-[2-({6-[2-fluoro-4-(trifluoromethyl)phenyl]pyridazin-3-yl}amino)ethyl]-1,3-thiazol-2-yl}thio)-2-methylpropionic acid] | 63% | 31% | 57% |  |  | 
16.5 nmol/L | CC(C)(Sc1nc(CCNc2cnc(-c3ccc(Cl)cc3)cn2)cs1)C(=O)O [Example 226, 2-{[4-(2-{[5-(4-chlorophenyl)pyrazin-2-yl]amino}ethyl)-1,3-thiazol-2-yl]thio}-2-methylpropionic acid] | 64% | 38% | 56% |  |  | 
7 nmol/L | CCCCCCCN(CCc1csc(SC(C)(C)C(=O)O)n1)c1ncc(CC)cn1 [Example 265, 2-[(4-{2-[(5-ethylpyrimidin-2-yl)(heptyl)amino]ethyl}-1,3-thiazol-2-yl)thio]-2-methylpropionic acid] | 69% | 31% | 63% |  |  | 
38.8 nmol/L | CCc1cnc(N(CCc2csc(SC(C)(C)C(=O)O)n2)Cc2cnn(-c3ccccc3)c2)nc1 [Example 326, 2-{[4-(2-{(5-ethylpyrimidin-2-yl)[(1-phenyl-1H-pyrazol-4-yl)methyl]amino}ethyl)-1,3-thiazol-2-yl]thio}-2-methylpropionic acid] | 59% | 31% | 43% |  |  | 
13.6 nmol/L | CCc1cnc(N(C/C=C/c2ccccc2)CCc2csc(SC(C)(C)C(=O)O)n2)nc1 [Example 346, 2-{[4-(2-{(5-ethylpyrimidin-2-yl)[(2E)-3-phenylprop-2-en-1-yl]amino}ethyl)-1,3-thiazol-2-yl]thio}-2-methylpropionic acid] | 63% | 31% | 47% |  |  | 
5.5 nmol/L | CCCCCCCN(CCc1csc(SC(C)(C)C(=O)O)n1)c1ncc(N2CCOCC2)cn1 [Example 442, 2-[(4-{2-[heptyl(5-morpholin-4-ylpyrimidin-2-yl)amino]ethyl}-1,3-thiazol-2-yl)thio]-2-methylpropionic acid] | 65% | 38% | 39% |  |  | 
 | CCCCCCCN(CCc1ccc(SC(C)(C)C(=O)O)cc1)C(=O)Nc1ccc(F)cc1F [GW-9578, reference compound] |  |  |  | 50-60% | 30-50% | 30-50%
